Assay: Franz skin diffusion cell permeation (percutaneous absorption) under ambient, natural or pulsed incoherent LED light
Conditions: for Permeation Dark: Dark control, ambient light absent; for Ctrl: ambient light only; for Ctrl-TiO2: ambient light, 2% TiO2; for Ctrl-TiO2/1.7 / Ctrl-TiO2/9.7 / Ctrl-TiO2/24: Table 7, 350 nm series; for Ctrl-TiO2/1.7: 2% TiO2, 1.7 cps; for Ctrl-TiO2/9.7: 2% TiO2, 9.7 cps; for Ctrl-TiO2/24: 2% TiO2, 24 cps; for 350/1.7 / 350/9.7 / 350/24: Table 7, 350 nm; for 350/1.7: 1.7 cps; for 350/9.7: 9.7 cps; for 350/24: 24 cps

Cn1c(=O)c2c(ncn2CC(=O)O)n(C)c1=O [Compound 1, Theophylline-7 acetic acid]
Permeation Dark: 0.00 μg/0.64 cm^2/25 hrs
Permeation Ctrl (ambient cool fluorescent light only, 260-750 nm, 120 cps): 0.00 μg/0.64 cm^2/25 hrs
Permeation Ctrl-TiO2 (ambient fluorescent light, sample with 2% (w/w) rutile TiO2): 0.00 μg/0.64 cm^2/25 hrs

O=C1O[C@H]([C@@H](O)CO)C([O-])=C1OP(=O)([O-])[O-].[Na+].[Na+].[Na+] [Compound 2, Sodium ascorbyl phosphate]
Ctrl (Table 7 (350 nm series)): 0.00
Ctrl-TiO2 (Table 7 (350 nm series)): 0.00
Ctrl-TiO2/1.7: 42.75
Ctrl-TiO2/9.7: 6.48
Ctrl-TiO2/24: 0.00
350/1.7: 3.33
350/9.7: 0.00
350/24: 0.00

O=C1O[C@H]([C@@H](O)CO)C(O)=C1O [Compound 3, Ascorbic Acid]
Ctrl (Table 7 (350 nm series)): 147.49
Ctrl-TiO2 (Table 7 (350 nm series)): 67.01
Ctrl (Table 8 (405 nm series)): 557.96
Ctrl-TiO2 (Table 8 (405 nm series)): 127.25

CCCCCCCCCCCCCCCC(=O)OC[C@H](O)[C@H]1OC(=O)C(O)=C1O [Compound 4, Ascorbyl palmitate]
Permeation Dark: 0.00 μg/0.64 cm^2/25 hrs
Ctrl (Table 7 (350 nm series)): 263.48
Ctrl-TiO2 (Table 7 (350 nm series)): 260.00
Ctrl-TiO2/1.7: 289.57
Ctrl-TiO2/9.7: 312.06
Ctrl-TiO2/24: 180.88
350/1.7: 160.87
350/9.7: 0.00
350/24: 151.00

— patent publication US7854753B2, “Photokinetic delivery of biologically active substances using pulsed incoherent light” (Photokinetix, Inc., priority 2002, dated 2010)
